The results in this text go back to article PMC8635029 (Frontiers in Pharmacology, 2021).

Data set [1] addresses T1, human κ opioid receptor (Homo sapiens, UniProt P41145).
T1 construct: expressed in transfected cells; cell membranes
In words: cAMP accumulation assay (forskolin-induced). In kind it is cell-based. The conditions noted are these: 2 μM forskolin, 30 min; read-out: EC50 for inhibition of forskolin-induced cAMP accumulation. As for the experimental part:
PathHunter® U2OS OPRK1 β-Arrestin cell line (DiscoverX) was maintained in McCoy’s 5A with 10% FBS, 250 μg/ml Hygromycin B and 500 μg/ml G418. When the cells reached to 80–90% confluence, they were collected and resuspended in HBSS (1X) containing 50 mM HEPES, 5 mM IBMX and 1% BSA stabilizer (lance® UltracAMP Kit, PerkinElmer) by adjusting the cell density to 3 × 10^5 cells/mL. The cells were divided into 384-well white plate (Corning®3572) at a volume of 5 μL, and were treated with compounds and 2 μM forskolin (an inducer of intracellular cAMP formation) for 30 min at room temperature. Subsequently, 5 μL of Eu-cAMP Tracer Working Solution and 5 μL of Ulight-anti-cAMP Working Solution per well were added to reach a final volume of 20 μL. The plate was incubated for 1 h at room temperature in the dark. The cAMP levels were then determined by using a microplate reader with TR-FRET assay ([Wang et al., 2014]). The results was expressed as (1–Signal[compound]/Signal[control]) × 100.
In general terms: Cyclic AMP is a second messenger, typically raised through Gs and lowered through Gi signalling.

Data set [2] in a line: In vivo brain/plasma distribution in rats. The conditions noted are these: rat, iv, SD rats, single 0.3 mg/kg i.v., read-out: brain/plasma concentration ratio. As for the experimental part: SD rats (half male and half female) were intravenously given a single dose of 0.3 mg/kg HSK21542. The samples were collected at 0.083, 0.5, 1.5 and 4 h after dosing. The rats were anesthetized with isoflurane and then sacrificed by taking blood from the abdominal aorta. The whole brains were rapidly removed from the crania. The plasma (∼100 μL) was separated from the blood by centrifugating at 2000 ×g for 10 min at 4°C. The brains were rinsed with ice-cold normal saline, blotted dry, weighted and placed into a plastic tube. For 1.0 g of brain sample, 4 ml of acetonitrile-ultrapure water solution (1:4, v/v) was added to the tube. The brain samples were then homogenized for 120 s at 50 Hz and ultrasound was performed for 5 min. The plasma and the brain samples were analyzed using a LC-MS/MS assay as detailed in supplementary materials.
The plasma or brain homogenate was ice thawed. […] The resulting solution was then analyzed to determine the concentrations of HSK21542 on a LC-MS/MS system, which consisted of a DGU-20A5R degasser, a LC-30AD pump, a SIL-30AC autosampler, a CTO-20A column oven (Shimadzu, Japan) and an AB Sciex Triple Quad 5500 mass spectrometer (Sciex, Canada). […] Quantification was conducted in positive ion mode. The MRM transition of m/z 704.4→295.2 was used to quantify HSK21542.

For data set [3], the system named is C57BL/6J mice. The data set can be described thus: Hot-plate test. The conditions noted are these: hot-plate test ED50 / writhing test ED50. In kind it is in vivo. Here is the method: The hot-plate test was performed according to previous reports ([DeWire et al., 2013]; [Hill et al., 2018a]; [Wang et al., 2018]). Female C57BL/6J mice were individually placed on a hot plate at 56°C and the latency to licking or jumping was then recorded. A cut-off time of 30 s was imposed in order to prevent tissue damage. Before drug administration, the latency of each mouse was measured and defined as the pre-drug value. The animals with a pre-drug value of greater than 20 s were excluded.

The subject of data set [4] is mice. The data set can be described thus: Locomotor activity test (sedation). The conditions noted are these: 0.4 mg/kg, 15 min post-dosing.

T1 sequence (P41145 whole entry): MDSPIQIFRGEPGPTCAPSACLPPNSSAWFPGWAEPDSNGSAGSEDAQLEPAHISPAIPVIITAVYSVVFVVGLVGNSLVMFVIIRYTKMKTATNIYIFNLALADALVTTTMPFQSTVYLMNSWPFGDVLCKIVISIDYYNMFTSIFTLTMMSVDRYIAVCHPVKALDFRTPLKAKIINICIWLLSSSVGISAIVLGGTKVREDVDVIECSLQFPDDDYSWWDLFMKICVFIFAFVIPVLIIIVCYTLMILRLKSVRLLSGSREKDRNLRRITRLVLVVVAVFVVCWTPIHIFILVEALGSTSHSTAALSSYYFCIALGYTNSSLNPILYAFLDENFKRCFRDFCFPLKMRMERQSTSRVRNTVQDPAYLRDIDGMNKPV

As a reminder, the EC50 is the concentration at which the effect is half-maximal. Regarding `CC(=O)N1CC2(CCN(C(=O)[C@@H](CCCCN)NC(=O)[C@@H](CC(C)C)NC(=O)[C@@H](Cc3ccccc3)NC(=O)[C@H](N)Cc3ccccc3)CC2)C1` [HSK21542, 7-(D-phenylalanyl-D-phenylalanyl-D-leucyl-D-lysyl)-2-acetyl-2,7-diazaspiro (3.5)nonane], the EC50 in data set [1] was determined as 2.41 pM. In addition, the Kp in data set [2] is 0.001. Also, the Therapeutic index in data set [3] stood at 116.6. The “effect on locomotor activity / total distance traveled” value in data set [4] is recorded as “did not significantly affect”.
